{"source": "paper PMC6920844", "about": "“Mechanism of Action and Interactions between Thyroid Peroxidase and Lipoxygenase Inhibitors Derived from Plant Sources” (Biomolecules, 2019)", "key": {"[1]": {"test": "ABTS radical scavenging activity (in vitro antioxidant capacity assay)", "protocol": "The ABTS radical scavenging activity was determined according to Re et al. [19], with some modifications. A 250 µL ABTS solution was mixed with 10 µL of each pure polyphenols solutions (concentration 50 µg/mL), ethanol extracts, and digested extracts (concentrations: 0.3 mg/mL), and then was measured at the wavelength 724 nm using a UV/Vis spectrophotometer (BioTek, Model Epoch2TC, Winooski, VT, USA) after 15 min of incubation at room temperature. The inhibition percentage of ABTS discoloration was calculated using the fallowing equation:AA = [(Ac − Ap)/(Ac)] × 100%(1) where Ac is the absorbance of control, Ap is the absorbance of pure polyphenols solutions"}, "thyroid peroxidase (TPO)": {"molecular_target": "T1, thyroid peroxidase (TPO) (Sus scrofa, UniProt P09933)", "T1 sequence (P09933 15-926)": "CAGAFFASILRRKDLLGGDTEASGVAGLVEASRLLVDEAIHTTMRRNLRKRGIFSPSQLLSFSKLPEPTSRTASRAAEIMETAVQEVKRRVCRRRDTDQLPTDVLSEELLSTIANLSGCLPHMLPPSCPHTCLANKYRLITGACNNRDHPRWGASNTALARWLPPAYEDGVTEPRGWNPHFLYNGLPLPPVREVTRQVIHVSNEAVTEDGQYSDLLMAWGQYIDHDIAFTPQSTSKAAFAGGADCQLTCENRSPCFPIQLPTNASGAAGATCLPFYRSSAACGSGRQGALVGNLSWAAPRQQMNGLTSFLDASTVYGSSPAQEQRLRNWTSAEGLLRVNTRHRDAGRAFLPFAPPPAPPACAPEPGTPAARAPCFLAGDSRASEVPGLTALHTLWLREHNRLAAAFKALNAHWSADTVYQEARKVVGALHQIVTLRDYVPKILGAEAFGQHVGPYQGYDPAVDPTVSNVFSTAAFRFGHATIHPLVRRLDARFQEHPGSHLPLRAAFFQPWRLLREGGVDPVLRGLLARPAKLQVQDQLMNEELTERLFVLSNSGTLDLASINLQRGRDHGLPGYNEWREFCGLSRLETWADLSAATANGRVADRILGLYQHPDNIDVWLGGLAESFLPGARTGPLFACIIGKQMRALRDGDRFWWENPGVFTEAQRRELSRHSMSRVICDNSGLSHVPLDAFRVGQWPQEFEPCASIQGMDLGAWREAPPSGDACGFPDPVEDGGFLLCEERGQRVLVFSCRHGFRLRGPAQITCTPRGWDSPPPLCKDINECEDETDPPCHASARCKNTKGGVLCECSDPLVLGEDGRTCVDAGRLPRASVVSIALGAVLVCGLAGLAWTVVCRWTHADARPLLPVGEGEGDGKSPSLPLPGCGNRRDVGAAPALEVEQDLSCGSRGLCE", "test": "Thyroid peroxidase inhibitory assay (guaiacol assay, Lineweaver–Burk plot)", "settings": "for Vmax (TPO) / Mode of Inhibition (TPO) / EFC50 (effective concentration inhibiting TPO in 50%) / Ki (TPO): pure polyphenol solutions; for Mode of Inhibition (TPO): Lineweaver–Burk"}, "[2]": {"settings": "pure polyphenols, values in text"}}, "note": "Marks after values point to notes of the source that are not given here.", "data": [{"smiles": "O=c1cc(-c2ccc(O)cc2)oc2cc(O)cc(O)c12", "note": "[Apigenin, apigenin]", "values": [{"measurement": "ABTS radical scavenging ability IC50", "setting": "[1]; pure chemical standards", "result": "0.406 ± 0.003 ^c mg/mL"}, {"measurement": "ABTS radical scavenging ability IC50", "setting": "[1]; [2]", "result": 405.93, "unit": "µg/mL"}, {"measurement": "IC50", "setting": "thyroid peroxidase (TPO)", "result": 430, "unit": "µM"}, {"measurement": "Ki", "setting": "thyroid peroxidase (TPO)", "result": 1250, "unit": "µM"}, {"measurement": "Vmax (TPO)", "setting": "thyroid peroxidase (TPO)", "result": "149.25 ± 5.12 ^a ΔAU/min"}, {"measurement": "Mode of Inhibition (TPO)", "setting": "thyroid peroxidase (TPO)", "result": "Uncompetitive"}]}, {"smiles": "O=c1c(O)c(-c2ccc(O)cc2)oc2cc(O)cc(O)c12", "note": "[Kaempferol, kaempferol]", "values": [{"measurement": "ABTS radical scavenging ability IC50", "setting": "[1]; pure chemical standards", "result": "0.337 ± 0.002 ^b mg/mL"}, {"measurement": "IC50", "setting": "thyroid peroxidase (TPO)", "result": 215, "unit": "µM"}, {"measurement": "Ki", "setting": "thyroid peroxidase (TPO)", "result": 653, "unit": "µM"}, {"measurement": "Vmax (TPO)", "setting": "thyroid peroxidase (TPO)", "result": "192.31 ± 8.34 ^b ΔAU/min"}, {"measurement": "Mode of Inhibition (TPO)", "setting": "thyroid peroxidase (TPO)", "result": "Competitive"}]}, {"smiles": "O.Oc1cc(O)c2c(c1)O[C@H](c1ccc(O)c(O)c1)[C@@H](O)C2", "note": "[Catechin, catechin]", "values": [{"measurement": "ABTS radical scavenging ability IC50", "setting": "[1]; pure chemical standards", "result": "0.078 ± 0.008 ^a mg/mL"}, {"measurement": "ABTS radical scavenging ability IC50", "setting": "[1]; [2]", "result": 78.37, "unit": "µg/mL"}, {"measurement": "EFC50 (effective concentration inhibiting TPO in 50%)", "setting": "thyroid peroxidase (TPO)", "result": "29.76 ± 2.05 ^b µg/mL"}, {"measurement": "Ki (TPO)", "setting": "thyroid peroxidase (TPO)", "result": "33.42 ± 1.35 ^a µg/mL"}, {"measurement": "Vmax (TPO)", "setting": "thyroid peroxidase (TPO)", "result": "144.93 ± 4.33 ^a ΔAU/min"}, {"measurement": "Mode of Inhibition (TPO)", "setting": "thyroid peroxidase (TPO)", "result": "Competitive"}]}, {"smiles": "COc1cc(C=CC(=O)O)cc(OC)c1O", "note": "(stereo in doubt) [Sinapinic acid, sinapinic acid]", "values": [{"measurement": "ABTS radical scavenging ability IC50", "setting": "[1]; [2]", "result": 84.33, "unit": "µg/mL"}, {"measurement": "EFC50 (effective concentration inhibiting TPO in 50%)", "setting": "thyroid peroxidase (TPO)", "result": "25.42 ± 1.13 ^a µg/mL"}, {"measurement": "Ki (TPO)", "setting": "thyroid peroxidase (TPO)", "result": "45.92 ± 3.22 ^b µg/mL"}, {"measurement": "Vmax (TPO)", "setting": "thyroid peroxidase (TPO)", "result": "149.25 ± 6.26 ^a ΔAU/min"}, {"measurement": "Mode of Inhibition (TPO)", "setting": "thyroid peroxidase (TPO)", "result": "Competitive"}]}]}
